Assay results: ChEMBL document CHEMBL3603840, “Discovery of non-competitive thrombin inhibitor derived from competitive tryptase inhibitor skeleton: Shift in molecular recognition resulted from skeletal conversion of carboxylate into phosphonate” (Bioorg Med Chem Lett, 2015)
The source made the active and inactive calls. The rule behind the calls is not given here.

How the values were obtained:
Tryptase [1] = molecular target: T1, Tryptase (Homo sapiens, UniProt Q9BZJ3+Q15661+Q9NRR2); test: Inhibition of tryptase (unknown origin) using t-Boc-Phe-Ser-Arg-MCA as substrate at 10 uM after 5 mins by fluorimetric analysis; format: protein assay
Prothrombin [2] = molecular target: T2, Prothrombin (Homo sapiens, UniProt P00734); test: Inhibition of thrombin (unknown origin) using t-Boc-Val-Pro-Arg-MCA as substrate at 10 uM after 5 mins by fluorimetric analysis
Trypsin [3] = molecular target: T3, Trypsin (Homo sapiens, UniProt P07477+P07478+P35030); test: Inhibition of trypsin (unknown origin) using Bz-Arg-pNA.HCl as substrate at 10 uM after 5 mins by colorimetric analysis; format: protein assay
Tryptase [4] = molecular target: T1, Tryptase; test: Inhibition of tryptase (unknown origin) using t-Boc-Phe-Ser-Arg-MCA as substrate after 5 mins by fluorimetric analysis; format: protein assay
Prothrombin [5] = molecular target: T2, Prothrombin; test: Inhibition of thrombin (unknown origin) using t-Boc-Val-Pro-Arg-MCA as substrate after 5 mins by fluorimetric analysis
Trypsin [6] = molecular target: T3, Trypsin; test: Inhibition of trypsin (unknown origin) using Bz-Arg-pNA.HCl as substrate after 5 mins by colorimetric analysis; format: protein assay
Prothrombin [7] = molecular target: T2, Prothrombin; test: Competitive inhibition of thrombin (unknown origin) using t-Boc-Val-Pro-Arg-MCA as substrate by Lineweaver-Burk plot analysis
Prothrombin [8] = molecular target: T2, Prothrombin; test: Non-competitive inhibition of thrombin (unknown origin) using t-Boc-Val-Pro-Arg-MCA as substrate by Lineweaver-Burk plot analysis

| SMILES | inhibition (Tryptase [1]) | inhibition (Prothrombin [2]) | inhibition (Trypsin [3]) | IC50 (Tryptase [4]) [µM] | IC50 (Prothrombin [5]) [µM] | IC50 (Trypsin [6]) [µM] | inhibition (Prothrombin [7]) | inhibition (Prothrombin [8]) |
| --- | --- | --- | --- | --- | --- | --- | --- | --- |
| CC(C)N1C(=O)c2ccc(NC(CCc3ccc(N)nc3)P(=O)(Oc3ccccc3)Oc3ccccc3)cc2C1=O (stereo not given) | inactive | inactive | inactive | – | – | – | – | – |
| CN1C(=O)c2ccc(OC(=O)CCc3ccc(N)nc3)cc2C1=O.Cl | 98% | 70% | 97% | 0.19 | 5.3 | 1.2 | Active | – |
| CN1C(=O)c2ccc(NC(CCc3ccc(N)nc3)P(=O)(Oc3ccccc3)Oc3ccccc3)cc2C1=O (stereo not given) | inactive | inactive | inactive | – | – | – | – | – |
| CCOP(=O)(CCc1ccc(N)nc1)Oc1ccc2c(c1)C(=O)N(C)C2=O (stereo not given) | 11% | 95% | inactive | – | – | – | – | inactive |
| CCOP(=O)(Cc1ccc(N)nc1)Oc1ccc2c(c1)C(=O)N(C)C2=O (stereo not given) | 5.3% | 59% | inactive | – | – | – | – | – |
